Here are results for six compounds from publication PMC9949698, “Visible-Light-Controlled Histone Deacetylase Inhibitors for Targeted Cancer Therapy” (Journal of Medicinal Chemistry, 2023).

In one series the target is T1, human recombinant HDAC1 (Homo sapiens, UniProt Q13547).
T1 construct: purchased BPS Bioscience
Briefly: Fluorogenic assay with human recombinant HDAC1, dark or illumination. The series is classed as biochemical. The procedure:
To study the inhibition of HDAC enzymes by the compounds, we used a fluorogenic assay with human recombinant HDAC1.[32] The enzyme was incubated with an acetylated substrate and each inhibitor for 1 h at room temperature, under either dark or light conditions. We opted for illumination throughout the incubation period to maintain the maximum proportion of cis under light conditions. […] Then, the deacetylated substrate generated a fluorescent coumarin after incubation of the mixture with trypsin at 37 °C for 20 min.
Stock solutions of the compounds were diluted to 1 mM in DMSO and then heated to 60 or 80 °C to obtain solutions with the maximum amount of the trans isomer (dark). […] The 1 mM solutions were then serially diluted with HDAC buffer to 10 times the desired concentration, maintaining DMSO at 10%.
In control wells without the compound, inhibitor, or enzyme, HDAC buffer was added instead. […] Then, 50 μL of the stop solution was added and the plates were incubated at 37 °C for 20 min in the dark. Fluorescence was measured at a λem of 460 nm and a λex of 380 nm. Enzyme activity is expressed as a percentage with respect to the nontreated cells, after subtracting the blank (well with no enzyme and no compound).

The subject of another series is HeLa cells. Description: HeLa cell viability, MTS assay, dark or preillumination. It counts as cell-based. Conditions: for pIC50: Homo sapiens, HeLa; for IC50(dark)/IC50(light): Table 5. The procedure:
We then proceeded to evaluate the effect of the compounds in a viability assay against HeLa cells.
(§1) HeLa, MCF7, and HT29 cells were maintained in adherent cultures in DMEM supplemented with 10% FBS. KG1 cells were maintained in a suspension culture in IMDM supplemented with 20% FBS.
Stock solutions of the compounds were heated to 60 or 80 °C to obtain solutions with the maximum amount of the trans isomer (dark). […] The solutions were then serially diluted with DMEM to give 20 times the desired final concentration, maintaining DMSO at 10%.
Cells were seeded in 96-well black flat bottom plates with a clear bottom at a density of 5 × 10^3 cells/well (HeLa) or 1 × 10^4 cells/well (MCF7, HT29, and KG1), in a volume of 95 μL.
(§2) Viability of HeLa, MCF7, and […] cells was determined with a CellTiter 96 assay (Promega), according to the manufacturer’s instructions. Briefly, 20 μL of CellTiter 96 reagent was added to each well, the plates were incubated at 37 °C for 2 h, and the absorbance at 490 nm was recorded. Viability is expressed as a percentage with respect to the nontreated cells.
Background: Tetrazolium assays rely on reduction of a dye to a coloured formazan, in cell work by metabolically active cells.

In a further series the test system is HT29 cells. Description: HT29 cell viability, MTS assay, 50 μM. It counts as cell-based. Conditions: 48 h. The procedure:
(§3) HDACis have been proposed as a potential therapeutic strategy against cancer stem cells (CSCs).[39],[40] We selected three cell lines that have a strong CSC phenotype (HT29,[41],[42] MCF7[43]−[45] and KG1[46]) and tested the best compounds at 50 μM under dark and illumination conditions.
as §1
(§4) Stock solutions of the compounds were heated to 60 or 80 °C to obtain solutions with the maximum amount of the trans isomer (dark). For the “light” solutions, the stock solutions were illuminated with 96-well LED array plates for 3 min at the maximum potency. The solutions were then serially diluted with DMEM to give 20 times the desired final concentration, maintaining DMSO at 10%.
(§5) Cells were seeded in 96-well black flat bottom plates with a clear bottom at a density of 5 × 10^3 cells/well (HeLa) or 1 × 10^4 cells/well (MCF7, HT29, and KG1), in a volume of 95 μL. After 24 h, 5 μL of compound solutions (20×) were added. Cells were incubated for 48 h.
as §2

In another series the test system is MCF7 cells. Briefly: MCF7 cell viability, MTS assay, 50 μM. The series is classed as cell-based. Conditions: 48 h. As to the method: as §3, §1, §4, §5, §2
A further series has as its system KG1 cells. Description: KG1 cell viability, CellTiterGlo assay, 50 μM. It counts as cell-based. Conditions: 48 h. The procedure: as §3, §1, §4, §5
Viability of KG1 cells was determined with a CellTiter-Glo (Promega) assay, according to the manufacturer’s instructions. Briefly, 100 μL of CellTiter-Glo reagent was added to each well, the plates were kept at room temperature for 10 min, and the luminescence was recorded. Viability is expressed as a percentage with respect to the nontreated cells.
(In general: In ATP-based viability assays light output follows the ATP content of the culture.)

Series [1] can be described thus: UV–vis spectra and optimal isomerization wavelengths. The series is classed as physicochemical. Conditions: for λcis (optimal wavelength trans to cis) / λtrans (optimal wavelength cis to trans): UV–vis at 25–50 μM in DMSO, Teleopto plates (Table 1). As to the method: Ultraviolet–visible (UV–vis) spectra were recorded using a Tecan Spark 20M Multimode Microplate reader. Samples (200 μL of compound solution/well) were prepared at […] in DMSO. Samples were measured between 300 and 800 nm with 2 nm fixed intervals in 96-well transparent plates. Illumination at different wavelengths was performed for 2 min using 96-well LED array plates (LEDA Teleopto) placed below the samples. […] Potencies were measured using a Thorlabs PM100D power energy meter connected with a standard photodiode power sensor (S120VC).

Series [2] can be described thus: E/Z composition under light or temperature conditions by HPLC. It counts as physicochemical.
The mark [3] stands for this setting: continuous illumination 550 nm (Table 4), read-out: IC50 light.
Where [4] appears, read: dark (Table 4), read-out: IC50 dark.
[5] abbreviates: preillumination 550 nm, 48 h, read-out: IC50 light (concentration that reduces cell viability by half).
The mark [6] stands for this setting: UV–vis spectra at 25–100 μM in DMSO (Table 3).
Where [7] appears, read: HPLC at isosbestic point (290–336 nm), 100 μM in DMSO after illumination with λcis (Table 3).
Setting [8] is: HPLC at isosbestic point (290–336 nm), 100 μM in DMSO after illumination with λtrans (Table 3).
Where [9] appears, read: supplementary CSV, read-out: HDAC1 IC50 dark.
The mark [10] stands for this setting: dark, 48 h, read-out: IC50 dark (concentration that reduces cell viability by half).
The mark [11] stands for this setting: dark vs 365 or 380 nm (Table 2), fold.
[12] abbreviates: dark, 1 h at room temperature (Table 2), read-out: IC50 dark.
[13] abbreviates: illumination 365 or 380 nm, 1 h at room temperature (Table 2), read-out: IC50 light.
Setting [14] is: preillumination 380 nm, 48 h, read-out: IC50 light (concentration that reduces cell viability by half).
[15] abbreviates: supplementary CSV, read-out: HeLa MTS IC50 light.
Setting [16] is: UV–vis spectra at 25–50 μM in DMSO (Table 1).
The mark [17] stands for this setting: HPLC at isosbestic point (310–338 nm), 100 μM in DMSO after illumination with λcis (Table 1).
Setting [18] is: HPLC at isosbestic point (310–338 nm), 100 μM in DMSO after illumination with λtrans (Table 1).

Each structure is given as a SMILES string. pIC50: −log10 of the molar value. Where two headings read alike, the source gives them in different places. A value given as a limit tells only on which side of the number the result lay.

T1 sequence (Q13547 whole entry): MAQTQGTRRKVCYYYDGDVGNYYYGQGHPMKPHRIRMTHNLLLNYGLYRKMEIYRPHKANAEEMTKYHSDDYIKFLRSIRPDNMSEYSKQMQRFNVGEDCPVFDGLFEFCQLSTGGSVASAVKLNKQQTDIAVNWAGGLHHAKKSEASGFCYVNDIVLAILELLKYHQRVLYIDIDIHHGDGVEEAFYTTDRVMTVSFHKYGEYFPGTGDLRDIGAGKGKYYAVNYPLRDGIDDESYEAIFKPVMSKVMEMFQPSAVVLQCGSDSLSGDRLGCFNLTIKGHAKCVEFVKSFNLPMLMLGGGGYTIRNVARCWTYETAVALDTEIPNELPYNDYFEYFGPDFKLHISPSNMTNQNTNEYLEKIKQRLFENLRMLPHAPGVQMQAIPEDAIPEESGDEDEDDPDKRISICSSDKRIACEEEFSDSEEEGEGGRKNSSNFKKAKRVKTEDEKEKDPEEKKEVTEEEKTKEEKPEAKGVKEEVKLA

On to `COc1cc(F)c(/N=N/c2c(F)cc(/C=C/C(=O)Nc3ccccc3N)cc2F)c(F)c1` [Compound 32a, (E)-N-(2-Aminophenyl)-3-(4-((E)-(2,6-difluoro-4-methoxyphenyl)diazenyl)-3,5-difluorophenyl)acrylamide], for which the “activity at the highest tested concentration in the dark” value on human recombinant HDAC1 (10 μM, dark) is reported as “no or little activity”. For the same compound, the “IC50(dark)/IC50(light)” value is greater than 5.0 at human recombinant HDAC1 (Table 4) and greater than 2.7 in the series with HeLa cells. At human recombinant HDAC1 (continuous illumination), the “IC50 under illumination, in words” value is given as “low micromolar range”. Moreover, the pIC50 on human recombinant HDAC1 (setting [3]) was 5.70; at human recombinant HDAC1 (setting [4]) it was less than 5.00; in the series on HeLa cells (setting [5]) it was 4.43. The “cell death under dark vs light conditions” value with HeLa cells (in words) was “inducing cell death only under light conditions”. For the same compound, the “effect on viability in the dark” value in the series with HT29 cells (dark), in the series on MCF7 cells (dark) and with KG1 cells (dark) was “little or no effect” throughout. Further, the “effect on viability when preilluminated” value in the series on HT29 cells (preilluminated (380 or 550 nm)), with MCF7 cells (preilluminated (380 or 550 nm)) and with KG1 cells (preilluminated (380 or 550 nm)) was “significantly reduced the viability” in each case. In addition, in series [1] (setting [6]), the λcis was found to be 550 nm. In series [1] (setting [6]), this compound returned a λmax cis of 434 nm. Besides, the λmax trans in series [1] (setting [6]) was found to be 358 nm. The λtrans in series [1] (setting [6]) came to 455 nm. Moreover, in series [2] (setting [7]), the “% cis at λcis” value came out at 77%. Moreover, the “% trans at λtrans” value in series [2] (setting [8]) turned out to be 74%.

On to `COc1ccc(/N=N/c2ccc(/C=C/C(=O)Nc3ccccc3N)cc2Cl)c(Cl)c1` [Compound 32e, (E)-N-(2-Aminophenyl)-3-(3-chloro-4-((E)-(2-chloro-4-methoxyphenyl)diazenyl)phenyl)acrylamide], for which the pIC50 on human recombinant HDAC1 (continuous illumination 380 nm (Table 4), read-out: IC50 light) was less than 5.00. In addition, on human recombinant HDAC1 (setting [4]), the pIC50 is less than 5.00. On human recombinant HDAC1 (setting [9]), the pIC50 is less than 5.00. The pIC50 on human recombinant HDAC1 (supplementary CSV, read-out: HDAC1 IC50 light) was less than 5.00. Moreover, in series [1] (setting [6]), the λcis came out at 380 nm, the λmax cis is listed as 464 nm, the λmax trans amounted to 396 nm and the λtrans is on record as 455 nm. Also, the “% cis at λcis” value in series [2] (setting [7]) is reported as 64%. Further, in series [2] (setting [8]), the “% trans at λtrans” value is 62%.

As to `COc1cc(F)c(/N=N/c2c(F)cc(/C=C/C(=O)NO)cc2F)c(F)c1` [Compound 39, (E)-3-(4-((E)-(2,6-Difluoro-4-methoxyphenyl)diazenyl)-3,5-difluorophenyl)-N-hydroxyacrylamide], the “IC50(dark)/IC50(light)” value at human recombinant HDAC1 (Table 4) worked out at 2.6; with HeLa cells, 0.52. Further, the pIC50 is 7.27 on human recombinant HDAC1 (setting [3]), 6.85 on human recombinant HDAC1 (setting [4]), 5.17 in the series with HeLa cells (setting [10]) and 4.89 with HeLa cells (setting [5]). In addition, the λcis in series [1] (setting [6]) turned out to be 550 nm. In series [1] (setting [6]), the λmax cis turned out to be 438 nm. Further, the λmax trans in series [1] (setting [6]) was determined as 358 nm. This compound gave a λtrans in series [1] (setting [6]) of 455 nm. In series [2] (setting [7]), the “% cis at λcis” value is 72%. Besides, in series [2] (setting [8]), the “% trans at λtrans” value is recorded as 83%.

Take `COc1ccc(/N=N/c2ccc(C(=O)NO)cc2)cc1` [Compound 17, (E)-N-Hydroxy-4-((4-methoxyphenyl)diazenyl)benzamide]: the “IC50(dark)/IC50(light)” value on human recombinant HDAC1 (setting [11]) is reported as 0.14; in the series with HeLa cells, “≈1”. In addition, the “relative activity of cis and trans forms” value at human recombinant HDAC1 (dark vs light, in words) is on record as “more active in the trans form than in the cis form”. The pIC50 on human recombinant HDAC1 (setting [12]) was 6.38; at human recombinant HDAC1 (setting [13]), 5.54; in the series on HeLa cells (setting [10]), roughly 4.60; in the series with HeLa cells (setting [14]), roughly 4.60; in the series on HeLa cells (supplementary CSV, read-out: HeLa MTS IC50 dark) it was 4.60; in the series with HeLa cells (setting [15]) it was 4.60. In addition, in series [1], the “λcis (optimal wavelength trans to cis)” value is on record as 380 nm. In series [1], the “λtrans (optimal wavelength cis to trans)” value was determined as 550 nm. Further, the λmax trans in series [1] (setting [16]) amounted to 360 nm. Further, in series [2] (setting [17]), the “% cis at λcis” value was found to be 84%. Also, in series [2] (setting [18]), the “% trans at λtrans” value is 92%.

`COc1ccc(/N=N/c2ccc(C(=O)Nc3ccccc3N)cc2)cc1` [Compound 18, (E)-N-(2-Aminophenyl)-4-((4-methoxyphenyl)diazenyl)benzamide]: the “IC50(dark)/IC50(light)” value on human recombinant HDAC1 (setting [11]) is 6; with HeLa cells, greater than 5.3. The pIC50 on human recombinant HDAC1 (setting [12]) is 5.92; at human recombinant HDAC1 (setting [13]), 6.70; in the series with HeLa cells (setting [14]), roughly 4.72; in the series on HeLa cells (setting [15]) it was 4.72. Besides, in series [1], the “λcis (optimal wavelength trans to cis)” value turned out to be 380 nm. The “λtrans (optimal wavelength cis to trans)” value in series [1] is 550 nm. In series [1] (setting [16]), this compound gave a λmax trans of 364 nm. Also, the “% cis at λcis” value in series [2] (setting [17]) was 82%. Moreover, the “% trans at λtrans” value in series [2] (setting [18]) came to 79%.

As for `COc1ccc(/N=N/c2ccc(/C=C/C(=O)Nc3ccccc3N)cc2F)c(F)c1` [Compound 32d, (E)-N-(2-Aminophenyl)-3-(3-fluoro-4-((E)-(2-fluoro-4-methoxyphenyl)diazenyl)phenyl)acrylamide], on human recombinant HDAC1 (Table 4), the “IC50(dark)/IC50(light)” value was “≈22”. Moreover, the pIC50 on human recombinant HDAC1 (setting [4]) is roughly 5.00. Moreover, the pIC50 at human recombinant HDAC1 (setting [9]) was 5.00. In series [1] (setting [6]), this compound had a λcis of 380 nm, a λmax cis of 448 nm, a λmax trans of 388 nm and a λtrans of 550 nm. Moreover, the “% cis at λcis” value in series [2] (setting [7]) worked out at 67%. Also, the “% trans at λtrans” value in series [2] (setting [8]) was determined as 59%.
